Results as given in ChEMBL document CHEMBL3734715, “Synthesis and antiproliferativeactivity of new vinca alkaloids containing an α,β-unsaturated aromatic side chain” (Bioorg Med Chem Lett, 2015).
Structures can show the parent of a compound that is named as a salt.

Tests used:
Format in all cases: functional, cell-based
[1] = system: Lu1; assay: Cytotoxicity against human Lu1 cells after 72 hrs by SRB assay; conditions: Lu1, 72 h
[2] = system: MCF7; assay: Cytotoxicity against human MCF7 cells after 72 hrs by SRB assay; conditions: MCF7, 72 h
[3] = system: HepG2; assay: Cytotoxicity against human HepG2 cells after 72 hrs by SRB assay; conditions: HepG2, 72 h
[4] = system: KB; assay: Cytotoxicity against human KB cells after 72 hrs by SRB assay

SMILES | IC50 [1] [µM] | IC50 [2] [µM] | IC50 [3] [µM] | IC50 [4] [µM]
CC[C@]1(O)C[C@@H]2C[C@](C(=O)OC)(c3cc4c(cc3OC)N(C)[C@H]3[C@@](O)(C(=O)OC)[C@H](OC(C)=O)[C@]5(CC)C=CCN6CC[C@]43[C@@H]65)c3[nH]c4ccccc4c3CC[N@+](CC(=O)/C=C/c3ccc(Cl)cc3)(C2)C1 | 4.25 | 4.89 | 7.77 | 0.06
CC[C@]1(O)C[C@H]2CN(CCc3c([nH]c4ccccc34)[C@@](C(=O)OC)(c3cc4c(cc3OC)N(C)[C@H]3[C@@](O)(C(=O)OC)[C@H](OC(C)=O)[C@]5(CC)C=CCN6CC[C@]43[C@@H]65)C2)C1 | 0.47 | 0.23 | 0.34 | 0.02
CCC1=C[C@@H]2C[C@](C(=O)OC)(c3cc4c(cc3OC)N(C)[C@H]3[C@@](O)(C(=O)OC)[C@H](OC(C)=O)[C@]5(CC)C=CCN6CC[C@]43[C@@H]65)c3[nH]c4ccccc4c3CC[N@@+](CC(=O)/C=C/c3ccc(O)c(OC)c3)(C1)C2 | 57.5 | 50.5 | 51.5 | 0.64
CCC1=C[C@@H]2C[C@](C(=O)OC)(c3c(OC)cc(N)cc3OC)c3[nH]c4ccccc4c3CC[N@@+](CC(=O)/C=C/c3ccc4ccccc4c3)(C1)C2 | 8.34 | 11.9 | 10.9 | 4.16
CCC1=C[C@@H]2C[C@](C(=O)OC)(c3cc4c(cc3OC)N(C)[C@H]3[C@@](O)(C(=O)OC)[C@H](OC(C)=O)[C@]5(CC)C=CCN6CC[C@]43[C@@H]65)c3[nH]c4ccccc4c3CC[N@@+](CC(=O)/C=C/c3ccc(Cl)cc3)(C1)C2 | 1.31 | 1.83 | 1.75 | 0.28
Cc1c2ccncc2c(C)c2c1[nH]c1ccccc12 [ELLIPTECINE] | 2.31 | 1.54 | 2.07 | 1.66
CCC1=C[C@H]2CN(CCc3c([nH]c4ccccc34)[C@@](C(=O)OC)(c3cc4c(cc3OC)N(C)[C@H]3[C@@](O)(C(=O)OC)[C@H](OC(C)=O)[C@]5(CC)C=CCN6CC[C@]43[C@@H]65)C2)C1 | 5.98 | 4.63 | 4.53 | 2.06
CC[C@]1(O)C[C@H]2CN(CCc3c([nH]c4ccccc34)[C@@](C(=O)OC)(c3cc4c(cc3OC)N(C=O)[C@H]3[C@@](O)(C(=O)OC)[C@H](OC(C)=O)[C@]5(CC)C=CCN6CC[C@]43[C@@H]65)C2)C1 [VINCRISTINE SULFATE] | 0.48 | 0.51 | 0.69 | 0.02
CC[C@]1(O)C[C@@H]2C[C@](C(=O)OC)(c3cc4c(cc3OC)N(C)[C@H]3[C@@](O)(C(=O)OC)[C@H](OC(C)=O)[C@]5(CC)C=CCN6CC[C@]43[C@@H]65)c3[nH]c4ccccc4c3CC[N@+](CC(=O)/C=C/c3ccc(O)c(OC)c3)(C2)C1 | 4.8 | 12.5 | 7.23 | 1.69
CCC1=C[C@@H]2C[C@](C(=O)OC)(c3c(OC)cc(N)cc3OC)c3[nH]c4ccccc4c3CC[N@@+](CC(=O)/C=C/c3ccc(O)c(OC)c3)(C1)C2 | 79 | 94.5 | 86.8 | 9.11
CC[C@]1(O)C[C@@H]2C[C@](C(=O)OC)(c3cc4c(cc3OC)N(C)[C@H]3[C@@](O)(C(=O)OC)[C@H](OC(C)=O)[C@]5(CC)C=CCN6CC[C@]43[C@@H]65)c3[nH]c4ccccc4c3CC[N@+](CC(=O)/C=C/c3ccc4ccccc4c3)(C2)C1 | 15.1 | 13.7 | 18.1 | 0.03
CCC1=C[C@@H]2C[C@](C(=O)OC)(c3c(OC)cc(N)cc3OC)c3[nH]c4ccccc4c3CC[N@@+](CC(=O)/C=C/c3ccc(Cl)cc3)(C1)C2 | 13.8 | 17.9 | 20.2 | 6.12
CC[C@]1(O)C[C@@H]2C[C@](C(=O)OC)(c3cc4c(cc3OC)N(C=O)[C@H]3[C@@](O)(C(=O)OC)[C@H](OC(C)=O)[C@]5(CC)C=CCN6CC[C@]43[C@@H]65)c3[nH]c4ccccc4c3CC[N@+](CC(=O)/C=C/c3ccc(O)c(OC)c3)(C2)C1 | 3.45 | 3.08 | 2.44 | 1.67
CCC1=C[C@@H]2C[C@](C(=O)OC)(c3cc4c(cc3OC)N(C)[C@H]3[C@@](O)(C(=O)OC)[C@H](OC(C)=O)[C@]5(CC)C=CCN6CC[C@]43[C@@H]65)c3[nH]c4ccccc4c3CC[N@@+](CC(=O)/C=C/c3ccc4ccccc4c3)(C1)C2 | 3.71 | 4.82 | 4.31 | 0.64
CCC1=C[C@H]2CN(CCc3c([nH]c4ccccc34)[C@@](C(=O)OC)(c3c(OC)cc(N)cc3OC)C2)C1 | 19.4 | 21 | 20.4 | 11.5
CC[C@]1(O)C[C@@H]2C[C@](C(=O)OC)(c3cc4c(cc3OC)N(C=O)[C@H]3[C@@](O)(C(=O)OC)[C@H](OC(C)=O)[C@]5(CC)C=CCN6CC[C@]43[C@@H]65)c3[nH]c4ccccc4c3CC[N@+](CC(=O)/C=C/c3ccc4ccccc4c3)(C2)C1 | 12 | 11 | 7.94 | 0.08
CC[C@]1(O)C[C@@H]2C[C@](C(=O)OC)(c3cc4c(cc3OC)N(C=O)[C@H]3[C@@](O)(C(=O)OC)[C@H](OC(C)=O)[C@]5(CC)C=CCN6CC[C@]43[C@@H]65)c3[nH]c4ccccc4c3CC[N@+](CC(=O)/C=C/c3ccc(Cl)cc3)(C2)C1 | 13.8 | 10.9 | 14.2 | 0.03
